Results: publication PMC8483441 (Journal of Medicinal Chemistry, 2021)
Converted amounts (≈) assume the structure as drawn. Square brackets hold non-standard residues; d marks the D form. Peptide text beside a SMILES is read from it. dOrn = NCCC[C@@H](N)C(=O)O; Orn = NCCC[C@H](N)C(=O)O

What was measured:
S. enterica = assay type: cell-based, Salmonella enterica; conditions: 24 h
Procedure: (§1) Human serum was purchased from Sigma (St Louis, USA).
(§2) Incubations were kept at 37 °C for 24 h. Results are the average of three independent studies.

Pseudomonas sp. [1] = test: MIC, broth microdilution; assay type: cell-based; conditions: Pseudomonas sp. ATCC 15915; Mueller-Hinton medium, 5 × 10^5 CFU/mL, 37 °C, 24 h; average of three independent studies
Procedure: as §1, §2

[2] = Cytotoxicity in mammalian cells (MTT assay); assay type: cell-based; conditions: MRC-5 cytotoxicity (IC50)
Procedure: (§3) MRC-5 cells were grown in Eagle’s minimum essential medium (MEMα), supplemented with 10% fetal bovine serum (FBS). 96-well plates were seeded with 3 × 10^4 cells/well and cultured overnight in order to get cells adhered into the plate and then incubated with two-fold peptide serial dilutions. After 4 h of incubation, the medium containing the peptides was replaced by MEMα supplemented with FBS and 3-(4,5-dimethylthiazol-2-yl)-2,5-diphenyltetrazolium bromide (MTT) at 0.4 mg/mL and incubated for 150 min. Detection of formazan crystals in the living cells was done by cell disruption by addition of 200 μL of dimethyl sulfoxide (DMSO) followed by absorbance measuring at 600 nm in a Tecan Infinite F Nano+ microplate reader (Tecan, Germany). Results are the average of three independent studies.

MRC-5 cells = test: Cytotoxicity in mammalian cells (MTT assay); assay type: cell-based; conditions: 4 h
Procedure: as §3

A. baumannii = assay type: cell-based, Acinetobacter baumannii; conditions: A. baumannii ATCC 15308; Mueller-Hinton medium, 5 × 10^5 CFU/mL, 37 °C, 24 h; average of three independent studies
Procedure: as §1, §2

Pseudomonas sp. [3] = test: Minimum bactericidal concentration (MBC); assay type: cell-based; conditions: 50 μL from MIC wells seeded into Petri plates, 24 h; lowest concentration without detectable growth
Procedure: as §2

E. coli = assay type: cell-based, Escherichia coli; conditions: 24 h
Procedure: as §1, §2

Salmonella enterica = assay type: cell-based; conditions: 24 h
Procedure: as §2

Escherichia coli = assay type: cell-based; conditions: 24 h
Procedure: as §2

Acinetobacter baumannii = assay type: cell-based; conditions: 50 μL from MIC wells seeded into Petri plates, 24 h; lowest concentration without detectable growth
Procedure: as §2

horse red blood cells = test: Hemolytic activity; assay type: cell-based; conditions: red cells of horse, 4 h, 250
Procedure: The peptide toxicity was determined detecting the disruption of horse red blood cells, following a previous assay report.[35] 10-fold diluted cells in PBS were centrifuged three times at 800g to eliminate the hemoglobin from disrupted cells. After the last resuspension, erythrocytes were incubated with the peptides for 4 h at 37 °C. The detection was done measuring the supernatant absorbance in a VICTOR3 multilabel plate reader (Perkin Elmer, Waltham, Massachusetts) at 540 nm in a microplate reader. Percentage of hemolysis was calculated through a pattern done with dilutions of total cell lysis done with a 1% Triton X-100 buffer. Results are the average of three independent studies.

A. baumannii 3862 = test: MIC, clinical bacterial strain; assay type: cell-based
Procedure: as §1, §2

A. baumannii 3879 = test: MIC, clinical bacterial strain; assay type: cell-based
Procedure: as §1, §2

A. baumannii 3880 = test: MIC, clinical bacterial strain; assay type: cell-based
Procedure: as §1, §2

P. aeruginosa 827651 = test: MIC, clinical bacterial strain; assay type: cell-based
Procedure: as §1, §2

E. coli cf073 = test: MIC, clinical bacterial strain; assay type: cell-based
Procedure: as §1, §2

S. typhimurium 365 = test: MIC, clinical bacterial strain; assay type: cell-based
Procedure: as §1, §2

A. baumannii 3878 = test: MIC, clinical bacterial strain; assay type: cell-based
Procedure: as §1, §2

P. aeruginosa 827632 = test: MIC, clinical bacterial strain; assay type: cell-based
Procedure: as §1, §2

E. coli 116878 = test: MIC, clinical bacterial strain; assay type: cell-based
Procedure: as §1, §2

S. typhimurium 324 = test: MIC, clinical bacterial strain; assay type: cell-based
Procedure: as §1, §2

Shigella flexneri = conditions: 50 μL from MIC wells seeded into Petri plates, 24 h; lowest concentration without detectable growth
Procedure: The antibiotic activity was defined by the minimum peptide concentration where the microorganism is unable to grow. The assay was done in polypropylene 96-well plates (Greiner, Frickenhausen, Germany) to avoid peptide binding to plate wells. Peptides were dissolved in water containing 0.4% w/v bovine serum albumin (BSA) and 0.02% v/v glacial acetic acid to prevent self-aggregation, following the reference protocol by Wiegand et al.,[42] based on the classical microtiter broth dilution recommended by the National Committee of Laboratory Safety and Standards (NCLSS). Initial bacteria inoculum was adjusted to 5 × 10^5 CFU/mL in Mueller-Hinton (MH) medium. Incubations were kept at 37 °C for 24 h. Results are the average of three independent studies. […] To determine the MBC, 50 μL from all wells were seeded into Petri plates and incubated for 24 h. The MBC concentration was attributed to the lowest concentration without detectable bacterial growth for each peptide.

S. flexneri = conditions: 24 h
Description: Purified horse red blood cells were acquired from Thermo Fisher Scientific (Hampshire, England). Human serum was purchased from Sigma (St Louis, USA). E. coli was obtained from the Coli Genetic Stock Center (BW25113). S. flexneri (ATCC 29903), A. baumannii (ATCC 15308), Pseudomonas sp. (ATCC 15915), and S. enterica (ATCC 14028) were obtained from the CECT (Valencia, Spain). Clinical strains were supplied by the Vall d’Hebron Hospital (Barcelona, Spain). MRC5 fibroblasts were obtained from the Cytometry and Cell Culture Facility (SCAC, UAB) and originally purchased from ATCC.
The antibiotic activity was defined by the minimum peptide concentration where the microorganism is unable to grow. The assay was done in polypropylene 96-well plates (Greiner, Frickenhausen, Germany) to avoid peptide binding to plate wells. Peptides were dissolved in water containing 0.4% w/v bovine serum albumin (BSA) and 0.02% v/v glacial acetic acid to prevent self-aggregation, following the reference protocol by Wiegand et al.,[42] based on the classical microtiter broth dilution recommended by the […]. Initial bacteria inoculum was adjusted to 5 × 10^5 CFU/mL in Mueller-Hinton (MH) medium. Incubations were kept at 37 °C for 24 h. Results are the average of three independent studies. MIC assays in the presence of serum were performed by incubating the peptide with human serum at a 1:1 ratio. Then, 10^6 cfu/mL of Pseudomonas sp. were incubated with serial dilutions of the peptides for 4 h. To determine the MBC, 50 μL from all wells were seeded into Petri plates and incubated for 24 h. The MBC concentration was attributed to the lowest concentration without detectable bacterial growth for each peptide.

In the case of `CC[C@H](C)[C@H](NC(=O)[C@H](C)NC(=O)[C@H](CCCN)NC(=O)[C@H](CCSC)NC(=O)[C@H](C)NC(=O)[C@@H](NC(=O)[C@@H](NC(=O)[C@H](CCCN)NC(=O)[C@@H]1CCCN1C(=O)[C@H](CO)NC(=O)[C@@H](NC(=O)[C@H](Cc1c[nH]cn1)NC(=O)[C@H](CCC(N)=O)NC(=O)[C@@H](NC(=O)[C@H](C)NC(=O)[C@H](Cc1ccccc1)NC(=O)[C@H](Cc1c[nH]c2ccccc12)NC(=O)[C@H](CCC(N)=O)NC(=O)[C@H](C)NC(=O)[C@H](CCCN)NC(=O)[C@@H](NC(=O)[C@H](Cc1ccccc1)NC(=O)[C@H]1CCCN1C(=O)[C@H](N)CCCN)[C@@H](C)O)[C@@H](C)CC)[C@@H](C)CC)[C@@H](C)O)[C@@H](C)CC)C(=O)N[C@@H](CC(N)=O)C(=O)N[C@@H](CC(N)=O)C(=O)N[C@@H](Cc1ccc(O)cc1)C(=O)N[C@@H](CCCN)C(=O)N[C@@H](Cc1c[nH]c2ccccc12)C(=O)N[C@@H](CCCN)C(N)=O` [peptide 7] (H-[dOrn][dP]FT[Orn]AQWFAIQHISP[Orn]TIAM[Orn]AINNY[Orn]W[Orn]-NH2), the “MIC S. enterica” value (S. enterica) is reported as 25 µM (≈ 87.6 µg/mL), the “MIC Pseudomonas sp.” value (Pseudomonas sp. [1]) is reported as 1.56 µM (≈ 5.47 µg/mL) and the IC50 [2] is reported as no more than 230 µM. The IC50 (MRC-5 cells) was 170 ± 20 µM, the “MIC A. baumannii” value (A. baumannii) was 6.25 µM (≈ 21.9 µg/mL) and the “MBC Pseudomonas sp.” value (Pseudomonas sp. [3]) was 1.56 µM (≈ 5.47 µg/mL). For the same molecule, the “MIC E. coli” value (E. coli) was 3.13 µM (≈ 11 µg/mL), the “MBC Salmonella enterica” value (Salmonella enterica) was 25 µM (≈ 87.6 µg/mL) and the “MBC Escherichia coli” value (Escherichia coli) was 3.13 µM (≈ 11 µg/mL). For the same molecule, the “MBC Acinetobacter baumannii” value (Acinetobacter baumannii) was 6.25 µM (≈ 21.9 µg/mL), the “hemolysis % (250 μM peptide)” value (horse red blood cells) was 3.6 ± 0.7% and the “MIC A. baumannii 3862” value (A. baumannii 3862) was 0.78 µM (≈ 2.73 µg/mL). For the same molecule, the “MIC A. baumannii 3879” value (A. baumannii 3879) was 1.56 µM (≈ 5.47 µg/mL), the “MIC A. baumannii 3880” value (A. baumannii 3880) was 6.25 µM (≈ 21.9 µg/mL) and the “MIC P. aeruginosa 827651” value (P. aeruginosa 827651) was 100 µM (≈ 351 µg/mL). The “MIC E. coli cf073” value (E. coli cf073) was 3.13 µM (≈ 11 µg/mL), the “MIC S. typhimurium 365” value (S. typhimurium 365) was 25 µM (≈ 87.6 µg/mL) and the “MIC A. baumannii 3878” value (A. baumannii 3878) was 0.78 µM (≈ 2.73 µg/mL). For the same molecule, the “MIC P. aeruginosa 827632” value (P. aeruginosa 827632) was 25 µM (≈ 87.6 µg/mL), the “MIC E. coli 116878” value (E. coli 116878) was 6.25 µM (≈ 21.9 µg/mL) and the “MIC S. typhimurium 324” value (S. typhimurium 324) was 25 µM (≈ 87.6 µg/mL). For the same molecule, the “MBC Shigella flexneri” value (Shigella flexneri) was 6.25 µM (≈ 21.9 µg/mL) and the “MIC S. flexneri” value (S. flexneri) was 6.25 µM (≈ 21.9 µg/mL).
